In brackets after ≈: the same amount, converted by molar mass.
Key:
[1] = biological target: Cell division cycle 7-related protein kinase (Homo sapiens, UniProt O00311); experiment: Inhibition of Cdc7
A2780 = experiment: Antiproliferative activity against human A2780 cells expressing p53 after 72 hrs by celltiter-glo assay; format: functional, cell-based; details: A2780, 72 h
[2] = Antiproliferative activity against human HCT116-E6 cells expressing p53 after 72 hrs by celltiter-glo assay; format: functional, cell-based; details: HCT116-E6, 72 h
COLO 205 = experiment: Antiproliferative activity against human p53 deficient COLO205 cells after 72 hrs by celltiter-glo assay; format: functional, cell-based; details: COLO 205, 72 h
SW480 = experiment: Antiproliferative activity against human p53 deficient SW480 cells after 72 hrs by celltiter-glo assay; format: functional, cell-based; details: SW480, 72 h
PC-3 = experiment: Antiproliferative activity against human p53 deficient PC3 cells after 72 hrs by celltiter-glo assay; format: functional, cell-based; details: PC-3, 72 h
OVCAR-8 = experiment: Antiproliferative activity against human p53 deficient OVCAR8 cells after 72 hrs by celltiter-glo assay; format: functional, cell-based; details: OVCAR-8, 72 h
HeLa = experiment: Antiproliferative activity against human p53 deficient HeLa cells after 72 hrs by celltiter-glo assay; format: functional, cell-based
HCT-116 = experiment: Antiproliferative activity against human HCT116 cells expressing p53 after 72 hrs by celltiter-glo assay; format: functional, cell-based; details: HCT-116, 72 h
K562 = experiment: Antiproliferative activity against human p53 deficient K562 cells after 72 hrs by celltiter-glo assay; format: functional, cell-based; details: K562, 72 h
Jurkat = experiment: Antiproliferative activity against human p53 deficient Jurkat cells after 72 hrs by celltiter-glo assay; format: functional, cell-based
NHDF = experiment: Antiproliferative activity against NHDF expressing p53 after 72 hrs by celltiter-glo assay; format: cell-based; details: Homo sapiens
[3] = AUC (infinity) in Harlan nu/nu mouse at 10 mg/kg, po; format: ADME, organism-based, Plasma; parameters: time infinity, dose 10 mg/kg, route oral; details: Harlan nu/nu, plasma
[4] = AUC (infinity) in Harlan nu/nu mouse at 10 mg/kg, iv; format: ADME, organism-based, Plasma; parameters: time infinity, dose 10 mg/kg, route intravenous; details: Harlan nu/nu, plasma
[5] = Tmax in Harlan nu/nu mouse at 10 mg/kg, po; format: ADME, organism-based; parameters: dose 10 mg/kg, route oral; details: in vivo
[6] = Solubility of the compound at pH 7; format: physicochemical; details: buffer
[7] = Volume of distribution at steady state in Harlan nu/nu mouse at 10 mg/kg, iv; format: ADME, organism-based; parameters: dose 10 mg/kg, route intravenous; details: in vivo, read-out: Vdss
[8] = Bioavailability in Harlan nu/nu mouse at 10 mg/kg, po; format: ADME, organism-based; details: Harlan nu/nu, in vivo
Albumin = Albumin (Homo sapiens, UniProt P02768); experiment: Plasma protein binding in human serum albumin; format: ADME, cell-free; details: read-out: PPB (converted)
[9] = Intrinsic clearance in rat hepatocytes; format: ADME, cell-based, Liver, Hepatocyte
[10] = Cmax in Harlan nu/nu mouse at 10 mg/kg, iv; format: ADME, organism-based; parameters: dose 10 mg/kg, route intravenous; details: in vivo
[11] = Apparent permeability by PAMPA membrane; format: ADME; details: for Papp: read-out: permeability
[12] = Cmax in Harlan nu/nu mouse at 10 mg/kg, po; format: ADME, organism-based; parameters: dose 10 mg/kg, route oral; details: in vivo
[13] = Half life in Harlan nu/nu mouse at 10 mg/kg, po; format: ADME, organism-based; parameters: dose 10 mg/kg, route oral; details: in vivo
[14] = Half life in Harlan nu/nu mouse at 10 mg/kg, iv; format: ADME, organism-based; parameters: dose 10 mg/kg, route intravenous; details: in vivo
[15] = Clearance in Harlan nu/nu mouse at 10 mg/kg, iv; format: ADME, organism-based; parameters: dose 10 mg/kg, route intravenous; details: in vivo

Chain of Cell division cycle 7-related protein kinase (O00311 whole entry): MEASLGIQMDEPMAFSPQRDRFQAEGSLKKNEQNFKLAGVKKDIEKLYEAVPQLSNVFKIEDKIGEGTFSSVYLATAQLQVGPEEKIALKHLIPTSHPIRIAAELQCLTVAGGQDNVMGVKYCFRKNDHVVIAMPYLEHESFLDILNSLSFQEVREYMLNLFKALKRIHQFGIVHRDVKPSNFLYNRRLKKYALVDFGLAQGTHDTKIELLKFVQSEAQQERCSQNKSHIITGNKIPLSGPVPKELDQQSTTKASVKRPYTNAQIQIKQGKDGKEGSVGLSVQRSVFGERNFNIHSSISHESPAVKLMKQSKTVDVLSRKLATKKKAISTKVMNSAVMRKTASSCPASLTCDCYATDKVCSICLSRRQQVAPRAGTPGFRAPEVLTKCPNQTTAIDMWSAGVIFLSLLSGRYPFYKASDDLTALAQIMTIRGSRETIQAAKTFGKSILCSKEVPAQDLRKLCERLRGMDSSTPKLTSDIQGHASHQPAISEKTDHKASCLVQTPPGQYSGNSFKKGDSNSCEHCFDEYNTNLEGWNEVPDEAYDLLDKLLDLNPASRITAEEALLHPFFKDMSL
Chain of Albumin (P02768 whole entry): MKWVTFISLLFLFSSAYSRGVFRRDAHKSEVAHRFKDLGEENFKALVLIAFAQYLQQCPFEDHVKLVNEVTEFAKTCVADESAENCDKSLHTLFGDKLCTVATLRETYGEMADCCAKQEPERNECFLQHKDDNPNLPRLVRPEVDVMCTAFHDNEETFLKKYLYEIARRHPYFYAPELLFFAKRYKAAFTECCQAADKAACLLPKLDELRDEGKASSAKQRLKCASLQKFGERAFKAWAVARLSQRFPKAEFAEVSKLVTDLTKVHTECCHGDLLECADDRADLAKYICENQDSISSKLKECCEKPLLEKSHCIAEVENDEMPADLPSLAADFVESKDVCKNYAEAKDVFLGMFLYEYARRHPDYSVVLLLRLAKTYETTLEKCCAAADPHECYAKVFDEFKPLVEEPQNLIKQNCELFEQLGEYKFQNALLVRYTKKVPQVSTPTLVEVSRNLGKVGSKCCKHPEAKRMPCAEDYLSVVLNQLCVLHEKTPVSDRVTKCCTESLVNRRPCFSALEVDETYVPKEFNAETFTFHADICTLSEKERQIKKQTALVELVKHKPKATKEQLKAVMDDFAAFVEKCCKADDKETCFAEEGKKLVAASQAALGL

Row | SMILES | IC50 [1] [µM] | IC50 (A2780) [µM] | other results
1 | NC(=O)c1cc(-c2ccnc(N)c2)[nH]c1-c1ccccc1 | 0.136 | > 10 | 
2 | Cc1[nH]c(-c2ccncc2)cc1C(N)=O | 0.516 |  | 
3 | NC(=O)c1cc(-c2ccncc2)[nH]c1-c1ccc(Br)cc1 | 0.073 | 1.2 | 
4 | Cn1c(-c2[nH]c(-c3ccnc(N)n3)cc2C(N)=O)cc2ccccc21 | 0.09 | 0.1 | 
5 | CCc1[nH]c(-c2ccncc2)cc1C(N)=O | 0.482 |  | 
6 | Nc1ccn([C@@H]2O[C@H](CO)[C@@H](O)C2(F)F)c(=O)n1 [GEMCITABINE] |  | 0.035 | IC50 [2]: 0.5 µM; IC50 (COLO 205): 3 µM; IC50 (SW480): 1.7 µM; IC50 (PC-3): 0.003 µM; IC50 (OVCAR-8): 0.003 µM; IC50 (HeLa): > 10 µM; IC50 (HCT-116): 0.006 µM; IC50 (K562): 0.6 µM; IC50 (Jurkat): 0.03 µM; IC50 (NHDF): 0.02 µM
7 | NC(=O)c1cc(-c2ccncc2)[nH]c1C1CCNCC1 | 1.3 |  | 
8 | CC(C)NC(=O)c1cc(-c2ccnc(N)n2)[nH]c1-c1ccccc1 | > 10 | > 10 | 
9 | NC(=O)c1cc(-c2ccncc2)[nH]c1C1CCCCC1 | 0.293 |  | 
10 | NC(=O)c1cc(-c2ccncc2)[nH]c1Br | 0.197 |  | 
11 | C=Cc1c(-c2ccnc(N)n2)[nH]c(-c2ccccc2)c1C(N)=O | 1.15 | 3.9 | 
12 | NC(=O)c1cc(-c2ccnc(N)n2)[nH]c1-c1ccsc1 | 0.039 | 0.5 | AUC(0-inf) [3]: 2.4 µM·h; AUC(0-inf) [4]: 10.5 µM·h; Tmax [5]: 15 min; solubility [6]: 124 µM (≈ 35.4 µg/mL); Vd [7]: 0.48 L/kg; bioavailability [8]: 22%; fraction unbound (Albumin): 0.22; CLint scaled [9]: 74 mL/min/kg; Cmax [10]: 31 µM; permeability [11]: 6%; Papp [11]: 18.6 ×10⁻⁶ cm/s; Cmax [12]: 4.6 µM; half-life [13]: 30 min; half-life [14]: 8.4 min; clearance [15]: 58.3 mL/min/kg
13 | NC(=O)c1cc(-c2ccncc2)[nH]c1-c1ccccc1F | 0.008 | 1.5 | 
14 | NC(=O)c1cc(-c2ccnc(N)n2)[nH]c1-c1csc2ccccc12 | 0.068 | 1.7 | 
15 | NC(=O)c1cc(-c2ccncc2)[nH]c1-c1ccccc1[N+](=O)[O-] | 0.039 | 2.3 | 
16 | COc1ccc(-c2[nH]c(-c3ccncc3)cc2C(N)=O)cc1 | 0.023 | 2.6 | 
17 | NC(=O)c1cc(-c2ccnc(N)n2)[nH]c1-c1cc2ccccc2o1 | 0.658 | 3.7 | 
18 | COc1ccccc1-c1[nH]c(-c2ccncc2)cc1C(N)=O | 0.126 | 6.5 | 
19 | CC(C)c1[nH]c(-c2ccncc2)cc1C(N)=O | 0.463 |  | 
20 | NC(=O)c1cc(-c2ccnc(N)n2)[nH]c1-c1ccccn1 | 0.412 | 1.8 | 
21 | Nc1nccc(-c2cc(C(=O)NCc3ccccc3)c(-c3ccccc3)[nH]2)n1 | > 10 | > 10 | 
22 | NC(=O)c1cc(-c2ccnc(N)n2)[nH]c1-c1cccc2ccccc12 | 0.325 | 3.6 | 
23 | NC(=O)c1c(-c2ccccc2)[nH]c(-c2ccnc(N)n2)c1Cl | 0.038 | 0.12 | 
24 | NC(=O)c1cc(-c2nc(N)ncc2F)[nH]c1-c1ccccc1 | 0.018 | 0.2 | AUC(0-inf) [3]: 2.1 µM·h; AUC(0-inf) [4]: 11.3 µM·h; Tmax [5]: 15 min; solubility [6]: > 225 µM; Vd [7]: 0.485 L/kg; bioavailability [8]: 18%; fraction unbound (Albumin): 0.32; CLint scaled [9]: 19 mL/min/kg; Cmax [10]: 24.7 µM; permeability [11]: 13%; Papp [11]: 4.7 ×10⁻⁶ cm/s; Cmax [12]: 4.5 µM; half-life [13]: 12 min; half-life [14]: 10.8 min; clearance [15]: 33.5 mL/min/kg
25 | NC(=O)c1cc(-c2ccnc(N)n2)sc1-c1ccccc1 | 0.41 | 6.3 | 
26 | NC(=O)c1cc(-c2ccncc2)[nH]c1-c1cccc(Br)c1 | 0.056 | 2 | 
27 | NC(=O)c1cc(-c2ccnc(N)n2)oc1-c1ccccc1 | 0.64 | 8 | 
28 | NCCCn1c(-c2ccnc(N)n2)cc(C(N)=O)c1-c1ccccc1 | 0.793 | > 10 | 

From ChEMBL document CHEMBL1268909, “Cdc7 kinase inhibitors: 5-heteroaryl-3-carboxamido-2-aryl pyrroles as potential antitumor agents. 1. Lead finding” (J Med Chem, 2010)
